16 compounds from US20240352046A1, “ECTONUCLEOTIDE PYROPHOSPHATASE-PHOSPHODIESTERASE-1 (ENPP1) INHIBITORS AND USES THEREOF” (1cBio, Inc., priority 2020, published 2024) can be followed below.

Molecules are shown by their SMILES. Some results are limits rather than exact numbers.

ENPP-1 (Ectonucleotide Pyrophosphatase/Phosphodiesterase 1), sequence (P22413 whole entry): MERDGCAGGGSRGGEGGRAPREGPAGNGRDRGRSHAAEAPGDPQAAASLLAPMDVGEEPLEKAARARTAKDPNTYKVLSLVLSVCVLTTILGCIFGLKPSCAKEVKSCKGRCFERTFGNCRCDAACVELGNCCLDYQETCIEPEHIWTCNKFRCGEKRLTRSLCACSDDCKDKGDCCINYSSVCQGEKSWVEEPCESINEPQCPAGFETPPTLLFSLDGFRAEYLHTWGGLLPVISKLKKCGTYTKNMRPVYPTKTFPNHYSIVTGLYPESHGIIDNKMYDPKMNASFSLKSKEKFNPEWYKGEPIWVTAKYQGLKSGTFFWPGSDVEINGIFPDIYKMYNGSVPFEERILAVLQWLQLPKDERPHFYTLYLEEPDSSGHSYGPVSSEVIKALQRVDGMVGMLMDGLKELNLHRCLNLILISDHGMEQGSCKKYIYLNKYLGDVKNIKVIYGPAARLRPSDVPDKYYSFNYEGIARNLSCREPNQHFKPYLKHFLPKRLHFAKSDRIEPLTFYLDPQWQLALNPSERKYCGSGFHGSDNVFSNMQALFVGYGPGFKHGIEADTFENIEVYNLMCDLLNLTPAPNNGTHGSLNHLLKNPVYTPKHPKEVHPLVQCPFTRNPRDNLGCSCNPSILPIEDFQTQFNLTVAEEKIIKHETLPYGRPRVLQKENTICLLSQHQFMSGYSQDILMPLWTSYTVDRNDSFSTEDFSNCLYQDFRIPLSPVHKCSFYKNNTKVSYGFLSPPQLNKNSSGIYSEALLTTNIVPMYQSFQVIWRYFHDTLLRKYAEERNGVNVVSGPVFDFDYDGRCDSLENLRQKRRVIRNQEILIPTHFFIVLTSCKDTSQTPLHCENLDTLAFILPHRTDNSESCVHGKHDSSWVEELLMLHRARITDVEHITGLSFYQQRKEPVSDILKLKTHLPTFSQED

The experiment concerns the target ENPP-1 (Ectonucleotide Pyrophosphatase/Phosphodiesterase 1) (Homo sapiens (Human), UniProt P22413). Briefly: ENPP1 inhibition assay (AMP Glo, cGAMP substrate). Format: biochemical. The following applies: cGAMP 20 μM substrate, ENPP1 1 nM. As to the method:
IC50 values of compounds against ENPP-1 (Ectonucleotide Pyrophosphatase/Phosphodiesterase 1) were determined at Integral BioSciences (India) using AMP Glo (Promega, Cat #V5011). Assay was performed in a 30 μL final volume in a white 96-well Half Area plate (Costar,Cat #3693). Dose response curve for the compounds were prepared in duplicates with starting conc. at 5 μM and a three-fold titration was performed. The reaction buffer consisted of 50 mM Tris (pH 8.0), 0.5 mM CaCl2), 1 μM ZnCl2, 250 mM NaCl and 0.1 mg/ml BSA. To the compound dilution, 15 μL of ENPP1 enzyme (R&D Systems; Cat #6136-EN-010) was added to each well (final conc. 1 nM) and the mix was pre-incubated for 15 min at RT. An equal volume (15 μL) containing cGAMP (Sigma, Cat #SML-1229) (final conc. 20 μM) was added to initiate the enzyme reaction and the reaction was incubated for 30 min at RT. The reaction was then stopped by heating at 90° C. for 3 minutes. 10 μl of reaction was then transferred to 384 well white, medium binding plates (Grenier, Cat #781075) to which 10 μl of AMP-Glo Reagent 1 was added and mixed well and incubated for 1 hour at 25° C. Following 60 min incubation, 20 μL of detection mixture was added to the enzyme reaction bringing the final volume to 40 μL. The reaction was further incubated for 60 min at RT after which the plates were read using BioTek Plate reader.
Analysis was done using the standard curve by non-linear regression, variable slope inhibitor curve fits (Graph-Pad Prism) and IC50's of compounds were determined wherever possible.
One may read the IC50 as the concentration that gives 50% inhibition. In turn, `COc1cc2ncnc(N3CC(CCCS(=O)(=O)O)C3)c2cc1OC` [Compound 1.65, 3-(1-(6,7-dimethoxyquinazolin-4-yl)azetidin-3-yl)propane-1-sulfonic acid] displayed an IC50 of 0.078 µM. Under `COc1cc2nncc(N3CC4(CC(N(C)S(N)(=O)=O)C4)C3)c2cc1OC` [Compound 1.68, 4(6-N-methylsulfamoylamino)-2-azaspiro[3.3]heptan-2-yl-6,7-dimethoxycinnoline] stands 0.003 µM. `Cc1c(Br)cn2ncnc(N3CC(CCNS(N)(=O)=O)C3)c12` [Compound 1.72, 4-(3-(2-sulfamoylaminoethyl)azetidine-1-yl)-6-bromo-5-methylpyrrolo[1,2-f][1,2,4]triazine] registered an IC50 of over 3 µM. In turn, `Cc1ccn2ncnc(N3CC4(CC(N(C)S(N)(=O)=O)C4)C3)c12` [Compound 1.73] registered an IC50 of 0.247 µM. The result for `Cc1c(Cl)cn2ncnc(N3CC4(CC(N(C)S(N)(=O)=O)C4)C3)c12` [Compound 1.75, N-[2-(6-chloro-5-methylpyrrolo[2,1-f][1,2,4]triazin-4-yl)-2-azaspiro[3.3]hept-6-yl]-N-methylsulfuric diamide] reads 0.391 µM; that for `Cc1cc(C)n2ncnc(N3CC4(CC(N(C)S(N)(=O)=O)C4)C3)c12` [Compound 1.77, N-(2-(5,7-dimethylpyrrolo[1,2-f][1,2,4]triazin-4-yl)-2-azaspiro[3.3]heptan-6-yl)-N-methylsulfamide], 0.295 µM. In turn, `Cc1c(C#N)cn2ncnc(N3CC4(CC(N(C)S(N)(=O)=O)C4)C3)c12` [Compound 1.78, N-(2-(6-cyano-5-methylpyrrolo[1,2-f][1,2,4]triazin-4-yl)-2-azaspiro[3.3]heptan-6-yl)-N-methylsulfamamide] showed an IC50 of 0.964 µM.

For `Cc1cc(Br)n2ncnc(N3CC4(CC(N(C)S(N)(=O)=O)C4)C3)c12` [Compound 1.79, N-(2-(7-bromo-5-methylpyrrolo[1,2-f][1,2,4]triazin-4-yl)-2-azaspiro[3.3]heptan-6-yl)-N-methylsulfamamide], the midpoint of inhibition, the IC50, lay at 0.053 µM. On to `Cc1cc(F)n2ncnc(N3CC4(CC(N(C)S(N)(=O)=O)C4)C3)c12` [Compound 1.80, N-(2-(7-fluoro-5-methylpyrrolo[1,2-f][1,2,4]triazin-4-yl)-2-azaspiro[3.3]heptan-6-yl)-N-methylsulfamamide], for which the IC50 amounted to 0.616 µM. Compound `Cc1cc(Cl)n2ncnc(N3CC4(CC(N(C5CC5)S(N)(=O)=O)C4)C3)c12` [Compound 1.81, N-(2-(7-chloro-5-methylpyrrolo[2,1-f][1,2,4]triazin-4-yl)-2-azaspiro[3.3]heptan-6-yl)-N-cyclopropylsulfamamide] gave a half-inhibitory concentration (IC50) of 0.245 µM.

`Cc1cc(Cl)n2ncnc(N3CC4(CC(N(C(C)C)S(N)(=O)=O)C4)C3)c12` [Compound 1.82, N-(2-(7-chloro-5-methylpyrrolo[2,1-f][1,2,4]triazin-4-yl)-2-azaspiro[3.3]heptan-6-yl)-N-isopropylsulfamamide] showed an IC50 of 1.89 µM. The compound `Cc1cc(Cl)n2ncnc(N3CC(CCN(C(C)C)S(N)(=O)=O)C3)c12` [Compound 1.83, N-(2-(1-(7-chloro-5-methylpyrrolo[2,1-f][1,2,4]triazin-4-yl)azetidin-3-yl)ethyl)-N-isopropylsulfamamide] registered an IC50 of over 3 µM. For the compound `Cc1cc(Cl)n2ncnc(N3CC(CCN(C)S(N)(=O)=O)C3)c12` [Compound 1.84, N-(2-(1-(7-chloro-5-methylpyrrolo[1,2-f][1,2,4]triazin-4-yl)azetidin-3-yl)ethyl)-N-methylsulfamide], the IC50 is over 2.25 µM. With `Cc1cc(Cl)n2nc(C3CC3)nc(N3CC4(CC(N(C)S(N)(=O)=O)C4)C3)c12` [Compound 1.85], the IC50 is over 2.39 µM.

In the case of `Cc1cc(Cl)n2ncnc(N3CC(CN(C)S(N)(=O)=O)C3)c12` [Compound 1.86], half-maximal inhibition (IC50) was put at 0.106 µM. `COc1ccc2c(N3CC4(CC(N(C)S(N)(=O)=O)C4)C3)cnnc2c1` [Compound 1.87, N-(2-(7-methoxycinnolin-4-yl)-2-azaspiro[3.3]heptan-6-yl)-N-methylsulfamide] came in with an IC50 of 0.024 µM.
